Laboratory results reported in patent publication US7423015B1, “Antihelminthic drugs as a treatment for hyperproliferative diseases” (Board of Regents, The University of Texas System, priority 2001, dated 2008).
Where two headings read alike, the source gives them in different places.

Assays:
H1299 = experiment: Cell viability, trypan blue cell count assay; assay type: cell-based; conditions: Homo sapiens, NCI-H1299, H1299 (lung, p53 deleted), 100% = untreated cells
Method: (§1) All cell lines were grown in RPMI 1640 medium supplemented with 5% fetal bovine serum and 5% CO2. All experiments were done when the cells were 70% confluent. For cell growth measurements, 5×10^4 cells were plated in each well of six-well plates. Control and BZ-treated (0.05 μg/ml) cells were trypsinized and counted using a hemocytometer. Experiments were done in triplicate and the mean and standard deviation were determined by standard methods.
(§2) To further investigate the relationship between the induction of functional p53 and the subsequent apoptosis mediated by these drugs, the inventors posited that if BZs require wild-type p53 in order to exert their effect, then fenbendazole and mebendazole would not be cytotoxic to the many tumor lines producing a mutated p53 protein. To investigate this possibility, human cell lines derived from NSCLC origins of differing p53 status were further analyzed by a 5-day cell growth assay. The cells were plated onto a six-well plate, and the viability of the cells was determined by trypan blue exclusion. Cells were counted on a hemocytometer. The values shown are the means ±standard deviation of triplicate samples. Duplicate experiments gave similar results. H322 is a human lung adenocarcinoma line that produces a mutant p53 protein. […] However, fenbendazole and mebendazole induced nuclear accumulation of p53 only in the H460 cell line, which carries wild-type p53 genes. […] Cells were exposed to FZ (filled bar) or MZ (hatched bar) for 24 hr. A concentration of 0.05 μg/ml FZ and MZ was used. An immunoblot analysis of nuclear p53 was also performed to determine whether these drugs induced the production of p53. Equal amounts of protein extracts from each cell line before and after treatment were used for this analysis.

H226Br = experiment: Cell viability, trypan blue cell count assay; assay type: cell-based; conditions: Homo sapiens, H226Br (lung, R254), 100% = untreated cells
Method: as §1, §2

H358 = experiment: Cell viability, trypan blue cell count assay; assay type: cell-based; conditions: Homo sapiens, NCI-H358, H358 (lung, p53 deleted), 100% = untreated cells
Method: as §1, §2

H460 = experiment: Cell viability, trypan blue cell count assay; assay type: cell-based; conditions: Homo sapiens, NCI-H460, H460 (lung, wild-type p53), 100% = untreated cells
Method: as §1, §2

H549 = experiment: Cell viability, trypan blue cell count assay; assay type: cell-based; conditions: Homo sapiens, H549 (lung, wild-type p53), 100% = untreated cells
Method: as §1, §2

H596 = experiment: Cell viability, trypan blue cell count assay; assay type: cell-based; conditions: Homo sapiens
Method: as §1, §2

HT1080 = experiment: Cell viability, trypan blue cell count assay; assay type: cell-based; conditions: Homo sapiens, HT-1080, HT1080 (fibrosarcoma, wild-type p53), 100% = untreated cells
Method: as §1, §2

HeLa = experiment: Cell viability, trypan blue cell count assay; assay type: cell-based; conditions: Homo sapiens, HeLa (cervical, wild-type p53 inactivated by E6), 100% = untreated cells
Method: as §1, §2

Hep 3B = experiment: Cell viability, trypan blue cell count assay; assay type: cell-based; conditions: Homo sapiens, Hep3B, Hep 3B (liver, p53 deleted), 100% = untreated cells
Method: as §1, §2

MCF-7 = experiment: Cell viability, trypan blue cell count assay; assay type: cell-based; conditions: Homo sapiens, MCF7, MCF-7 (breast, wild-type p53), 100% = untreated cells
Method: as §1, §2

SK-OV-433 = experiment: Cell viability, trypan blue cell count assay; assay type: cell-based; conditions: Homo sapiens, SK-OV-433 (ovarian, wild-type p53), 100% = untreated cells
Method: as §1, §2

Saos-2 = experiment: Cell viability, trypan blue cell count assay; assay type: cell-based; conditions: Homo sapiens, Saos-2 (osteosarcoma, p53 deleted), 100% = untreated cells
H322 = experiment: Cell viability, trypan blue cell count assay; assay type: cell-based; parameters: dose or concentration left out as unconfirmed; conditions: Homo sapiens, NCI-H322, read-out: % Cell Viability
Method: as §1, §2

MDA 231 = experiment: Cell viability, trypan blue cell count assay; assay type: cell-based; parameters: dose or concentration left out as unconfirmed; conditions: Homo sapiens, MDA-MB-231, read-out: % Cell Viability
Method: as §1, §2

RD = experiment: Cell viability, trypan blue cell count assay; assay type: cell-based; parameters: dose or concentration left out as unconfirmed; conditions: Homo sapiens, read-out: % Cell Viability
Method: as §1, §2

SW480 = experiment: Cell viability, trypan blue cell count assay; assay type: cell-based; parameters: dose or concentration left out as unconfirmed; conditions: Homo sapiens, SW480, read-out: % Cell Viability
Method: as §1, §2

SiHa = experiment: Cell viability, trypan blue cell count assay; assay type: cell-based; conditions: Homo sapiens, SiHa (cervical, wild-type p53 inactivated by E6), 100% = untreated cells
p53 protein = experiment: p53 induction, immunoblot analysis of nuclear extracts; assay type: cell-based, human; conditions: H460; 0.05 μg/ml, exposure 1 to 24 hr
Method: Cells were grown in 6-cm dishes, cultured, and treated as described above. To prepare the whole-cell lysates, the medium was removed and cells were washed twice with ice-cold Tris-buffered saline (TBS) (150 mM NaCl, 10 mM Tris; pH 7.6) and lysed with 0.5 ml of lysis buffer (10 mM Tris, 150 mM NaCl, 1% Triton X-100, 5 mM EDTA, 25 mM glycerphosphate, 1 mM phenylmethylsulphonyl fluoride (PMSF), 2 mM benzamidine, […], and 1 mM sodium orthovanadate) for 15 min. The lysed cells were then transferred to 1.5 ml microtubes, centrifuged at 15,000×g for 10 min at 4° C., and the supernatants collected mixed with Laemmli's sample buffer and subjected to western blot analysis as described elsewhere (Nare et al., 1994). Blots were probed with anti-p53 monoclonal antibody Bp53-12 (Santa Cruz Biotechnology, Inc.) and the immunocomplex was detected by the Enhanced Chemiluminescence kit according to the manufacturer's directions (Amersham).
Cell extracts were prepared from H460 cells exposed to 0.05 μg/ml FZ or MZ for various durations (1 to 24 hr). The effect of FZ and MZ on the nuclear accumulation of p53 appeared to be gradual and was not significant within the first hour of exposure. […] The appearance of p53 in response to drug treatment also coincided with the initiation of apoptosis, which was detectable by 24 hr, as well as shown earlier by TdT FACS analysis. […] Total RNA was extracted and […] was used for the analysis. p53 protein was detected by immunoblot analysis.

SMILES	viability at 0.05 µg/mL (H1299)	viability at 0.05 µg/mL (H226Br)	viability at 0.05 µg/mL (H358)	viability at 0.05 µg/mL (H460)	viability at 0.05 µg/mL (H549)	viability (H596; NCI-H596, read-out: % Cell Viability)	viability at 0.05 µg/mL (HT1080)	viability at 0.05 µg/mL (HeLa)	viability at 0.05 µg/mL (Hep 3B)	viability at 0.05 µg/mL (MCF-7)	viability at 0.05 µg/mL (SK-OV-433)	viability at 0.05 µg/mL (Saos-2)	viability (H322)	viability (MDA 231)	viability (RD)	viability (SW480)	viability at 0.05 µg/mL (SiHa)	time at which nuclear accumulation of p53 became significantly detectable (p53 protein)	time at which nuclear accumulation of p53 peaked (p53 protein)	viability (H596; NCI-H596, H596 (lung, R245C), 100% = untreated cells, read-out: % Cell Viability)
COC(=O)Nc1nc2ccc(Sc3ccccc3)cc2[nH]1 [Fenbendazole, methy 5-(phenylthio)-2-benzimidazole-2-carbamate]	89.2 ± 1.1%	80.1 ± 11.1%	88.3 ± 17.8%	39.2 ± 6.4%	46.4 ± 13.3%	86.7 ± 11.5%	54.5 ± 12%	93.6 ± 7.4%	79.5 ± 12.5%	43.9 ± 7.3%	52.5 ± 13.2%	76.5 ± 5.9%	65.9 ± 4.9%	65.3 ± 5%	78.7 ± 12%	70.6 ± 7.6%	94.5 ± 7.4%	about 16 hr	24 h	–
COC(=O)Nc1nc2ccc(C(=O)c3ccccc3)cc2[nH]1 [Mebendazole, Methyl 5-benzoylbenzimidazole-2-carbamate]	89.2 ± 4.3%	64.24 ± 0.2%	73.5 ± 1.8%	25.2 ± 7.6%	39.2 ± 10.7%	–	44.5 ± 7.7%	92.4 ± 6.27%	83.2 ± 1.5%	24.3 ± 8.4%	28.1 ± 6.1%	65.4 ± 10.1%	68.5 ± 3.7%	66.2 ± 15.8%	72.2 ± 2.8%	63.6 ± 13.3%	91.3 ± 8.6%	about 16 hr	24 h	86.2 ± 8%
